Data reported in US20130274338A1, “PHARMACEUTICAL COMPOSITIONS COMPRISING DGLA, 15-OHEPA, AND/OR 15-HETRE AND METHODS OF REDUCING SEBUM PRODUCTION USING SAME” (priority 2012, published 2013).

System: P. acnes
Assay: Agar dilution method, growth of P. acnes and MIC, combinations with a fatty acid spike
Type: cell-based, Propionibacterium acnes
Set-up: key to Growth Index Plate 1 / Growth Index Plate 2 / Growth Index Plate 3 / Growth Index Avg: +++: confluent growth (comparable to control); ++: less confluent growth; +: marked reduction in growth to multiple tiny, single colonies; −: no growth present
Experimental: Several compounds including fatty acids such as DGLA, 15-OHEPA, and 15-HETrE were tested to determine their capacity to inhibit the growth of P. acnes. In an exemplary method, an agar dilution method was used to determine the minimum inhibitory concentration (MIC) of each tested compound. Briefly, the agar dilution method involved preparing a series of concentrations of each compound (e.g., nicotinamide, benzoyl peroxide, adapalene, metronidazole, DGLA, 15-OHEPA, and 15-HETrE) in a Reinforced Clostridial Agar (RCA) media that facilitates growth of P. acnes under anaerobic conditions. An inoculum of P. acnes was prepared by incubation of P. acnes for approximately seven days at 35-37° C. to achieve a ≧1.0 OD600 inoculum of P. acnes in RCM broth. A portion of this inoculum was then added to the surface of each plate as a 10 μL spot and incubated at 35-37° C. for 72 hours or more. Growth of P. acnes was then observed and compared to control plates in which no compound has been added, and positive inhibition plates prepared with erythromycin. […] The growth of P. acnes in the presence of nicotinamide, benzoyl peroxide, adapalene, metronidazole, DGLA, 15-OHEPA, and 15-HETrE was determined with varying concentrations of the compound (see, Table 2). Next, the MIC was determined as the concentration at which a marked reduction (+) occurs in the appearance of growth on the test plate (as per Clinical and Laboratory Standards Institute M11-A7).
The compounds tested singly in Example 1 were tested in combination with one another to determine the capacity of the combination to inhibit the growth of P. acnes. In an exemplary method, the MIC was determined for each of the combination as described in Example 1. Briefly, test combinations included DGLA with nicotinamide, benzoyl peroxide, adapalene, or metronidazole; 15-HETrE with nicotinamide, benzoyl peroxide, adapalene, or metronidazole; and 15-OHEPA with nicotinamide, benzoyl peroxide, adapalene, or metronidazole. The tables below show the growth of P. acnes in the presence of 0.4 or 1.0 mg/mL DGLA with varying concentrations of nicotinamide, benzoyl peroxide, adapalene, or metronidazole (Table 3); the growth of P. acnes in the presence of 0.01 or 0.05 mg/mL 15-HETrE with varying concentrations of nicotinamide, benzoyl peroxide, adapalene, or metronidazole (Table 5); and the growth of P. acnes in the presence of 0.5 or 0.1 mg/mL 15-OHEPA with varying concentrations of nicotinamide, benzoyl peroxide, adapalene, or metronidazole (Table 7).

[1] = compound at 0.2 mg/mL + 0.01 mg/mL 15-HETrE
[2] = compound at 0.2 mg/mL + 0.05 mg/mL 15-HETrE
[3] = compound at 0.2 mg/mL + 0.05 mg/mL 15-OHEPA
[4] = compound at 0.2 mg/mL + 0.1 mg/mL 15-OHEPA
[5] = compound at 0.2 mg/mL + 0.4 mg/mL dGLA
[6] = compound at 0.2 mg/mL + 1.0 mg/mL dGLA
[7] = compound at 0.4 mg/mL + 0.01 mg/mL 15-HETrE
[8] = compound at 0.4 mg/mL + 0.05 mg/mL 15-HETrE
[9] = compound at 0.4 mg/mL + 0.05 mg/mL 15-OHEPA
[10] = compound at 0.4 mg/mL + 0.1 mg/mL 15-OHEPA
[11] = compound at 0.4 mg/mL + 0.4 mg/mL dGLA
[12] = compound at 0.4 mg/mL + 1.0 mg/mL dGLA
[13] = compound at 0.6 mg/mL + 0.01 mg/mL 15-HETrE
[14] = compound at 0.6 mg/mL + 0.05 mg/mL 15-HETrE
[15] = compound at 0.6 mg/mL + 0.05 mg/mL 15-OHEPA
[16] = compound at 0.6 mg/mL + 0.1 mg/mL 15-OHEPA
[17] = compound at 0.6 mg/mL + 0.4 mg/mL dGLA
[18] = compound at 0.6 mg/mL + 1.0 mg/mL dGLA
[19] = compound at 0.7 mg/mL + 0.01 mg/mL 15-HETrE
[20] = compound at 0.7 mg/mL + 0.05 mg/mL 15-HETrE
[21] = compound at 0.7 mg/mL + 0.05 mg/mL 15-OHEPA
[22] = compound at 0.7 mg/mL + 0.1 mg/mL 15-OHEPA
[23] = compound at 0.8 mg/mL + 0.01 mg/mL 15-HETrE
[24] = compound at 0.8 mg/mL + 0.05 mg/mL 15-HETrE
[25] = compound at 0.8 mg/mL + 0.05 mg/mL 15-OHEPA
[26] = compound at 0.8 mg/mL + 0.1 mg/mL 15-OHEPA
[27] = compound at 0.8 mg/mL + 0.4 mg/mL dGLA
[28] = compound at 0.8 mg/mL + 1.0 mg/mL dGLA
[29] = compound at 1.0 mg/mL + 0.4 mg/mL dGLA
[30] = compound at 1.0 mg/mL + 1.0 mg/mL dGLA

## COc1ccc(-c2ccc3cc(C(=O)O)ccc3c2)cc1C12CC3CC(CC(C3)C1)C2 [Adapalene, 6-[3-(1-adamantyl)-4-methoxyphenyl]-2-naphthoic acid]
[1]
  Growth Index Avg: +++
  Growth Index Plate 1: +++
  Growth Index Plate 2: +++
  Growth Index Plate 3: +++
[2]
  Growth Index Avg: −
  Growth Index Plate 1: −
  Growth Index Plate 2: −
  Growth Index Plate 3: −
[3]
  Growth Index Avg: +++
  Growth Index Plate 1: +++
  Growth Index Plate 2: +++
  Growth Index Plate 3: +++
[4]
  Growth Index Avg: −
  Growth Index Plate 1: −
  Growth Index Plate 2: −
  Growth Index Plate 3: −
[5]
  Growth Index Avg: +++
  Growth Index Plate 1: +++
  Growth Index Plate 2: +++
  Growth Index Plate 3: +++
[6]
  Growth Index Avg: +++
  Growth Index Plate 1: +++
  Growth Index Plate 2: +++
  Growth Index Plate 3: +++
[7]
  Growth Index Avg: +++
  Growth Index Plate 1: +++
  Growth Index Plate 2: +++
  Growth Index Plate 3: +++
[8]
  Growth Index Avg: −
  Growth Index Plate 1: −
  Growth Index Plate 2: −
  Growth Index Plate 3: −
[9]
  Growth Index Avg: +++
  Growth Index Plate 1: +++
  Growth Index Plate 2: +++
  Growth Index Plate 3: +++
[10]
  Growth Index Avg: −
  Growth Index Plate 1: −
  Growth Index Plate 2: −
  Growth Index Plate 3: −
[11]
  Growth Index Avg: +++
  Growth Index Plate 1: +++
  Growth Index Plate 2: +++
  Growth Index Plate 3: +++
[12]
  Growth Index Avg: +++
  Growth Index Plate 1: +++
  Growth Index Plate 2: +++
  Growth Index Plate 3: +++
[13]
  Growth Index Avg: ++
  Growth Index Plate 1: ++
  Growth Index Plate 2: ++
  Growth Index Plate 3: ++
[14]
  Growth Index Avg: −
  Growth Index Plate 1: −
  Growth Index Plate 2: −
  Growth Index Plate 3: −
[15]
  Growth Index Avg: +++
  Growth Index Plate 1: ++
  Growth Index Plate 2: +++
  Growth Index Plate 3: +++
[16]
  Growth Index Avg: −
  Growth Index Plate 1: −
  Growth Index Plate 2: −
  Growth Index Plate 3: −
[17]
  Growth Index Avg: +++
  Growth Index Plate 1: +++
  Growth Index Plate 2: +++
  Growth Index Plate 3: +++
[18]
  Growth Index Avg: +++
  Growth Index Plate 1: +++
  Growth Index Plate 2: +++
  Growth Index Plate 3: +++
[19]
  Growth Index Avg: +
  Growth Index Plate 1: +
  Growth Index Plate 2: +
  Growth Index Plate 3: +
[20]
  Growth Index Avg: −
  Growth Index Plate 1: −
  Growth Index Plate 2: −
  Growth Index Plate 3: −
[21]
  Growth Index Avg: ++
  Growth Index Plate 1: ++
  Growth Index Plate 2: ++
  Growth Index Plate 3: ++
[22]
  Growth Index Avg: −
  Growth Index Plate 1: −
  Growth Index Plate 2: −
  Growth Index Plate 3: −
[23]
  Growth Index Avg: −
  Growth Index Plate 1: +
  Growth Index Plate 2: −
  Growth Index Plate 3: −
[24]
  Growth Index Avg: −
  Growth Index Plate 1: −
  Growth Index Plate 2: −
  Growth Index Plate 3: −
[25]
  Growth Index Avg: ++
  Growth Index Plate 1: ++
  Growth Index Plate 2: ++
  Growth Index Plate 3: +
[26]
  Growth Index Avg: −
  Growth Index Plate 1: −
  Growth Index Plate 2: −
  Growth Index Plate 3: −
[27]
  Growth Index Avg: +++
  Growth Index Plate 1: +++
  Growth Index Plate 2: +++
  Growth Index Plate 3: +++
[28]
  Growth Index Avg: +++
  Growth Index Plate 1: +++
  Growth Index Plate 2: +++
  Growth Index Plate 3: +++
[29]
  Growth Index Avg: +++
  Growth Index Plate 1: +++
  Growth Index Plate 2: +++
  Growth Index Plate 3: +++
[30]
  Growth Index Avg: +++
  Growth Index Plate 1: +++
  Growth Index Plate 2: +++
  Growth Index Plate 3: +++
In combination with 15-OHEPA
  growth of P. Acnes in combination with 15-OHEPA, compared with 15 OHEPA used alone: did not reduce the growth
In combination with DGLA
  growth of P. Acnes in combination with DGLA, compared with DGLA used alone: did not reduce the growth
